We go through eleven compounds from ChEMBL document CHEMBL1909046, “DrugMatrix in vitro pharmacology data”.

The target of experiment [1] is T1, Calcitonin receptor (Homo sapiens, UniProt P30988). Also: in other assays of this panel Not Active means under 50% inhibition at 10 µM.
T1 sequence (P30988 whole entry): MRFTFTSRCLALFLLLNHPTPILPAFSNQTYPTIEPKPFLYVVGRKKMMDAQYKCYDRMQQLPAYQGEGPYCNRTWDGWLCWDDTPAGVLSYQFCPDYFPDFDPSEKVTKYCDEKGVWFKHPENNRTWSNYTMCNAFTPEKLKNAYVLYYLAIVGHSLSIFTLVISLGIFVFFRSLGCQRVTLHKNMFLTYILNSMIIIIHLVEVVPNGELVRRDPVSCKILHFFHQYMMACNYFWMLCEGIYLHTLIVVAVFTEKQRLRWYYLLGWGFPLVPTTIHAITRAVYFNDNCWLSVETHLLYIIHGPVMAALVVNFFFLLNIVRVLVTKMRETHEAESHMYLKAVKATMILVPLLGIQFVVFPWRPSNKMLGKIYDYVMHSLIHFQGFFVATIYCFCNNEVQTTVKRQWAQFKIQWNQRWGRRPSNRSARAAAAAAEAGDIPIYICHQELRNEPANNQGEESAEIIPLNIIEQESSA
The experiment is classed as cell membranes, Membrane. The following applies: t47d.

Experiment [2] concerns the target Sigma non-opioid intracellular receptor 1 (Homo sapiens, UniProt Q99720). In words: DRUGMATRIX: Sigma1 radioligand binding (ligand: [3H] Haloperidol). The note with it: Not Active = under 50% inhibition at 10 µM. It counts as cell membranes, Jurkat, Membrane.
For experiment [3], the target named is T2, C-C chemokine receptor type 4 (Homo sapiens, UniProt P51679). Also: in other assays of this panel Not Active means under 50% inhibition at 10 µM.
T2 sequence (P51679 whole entry): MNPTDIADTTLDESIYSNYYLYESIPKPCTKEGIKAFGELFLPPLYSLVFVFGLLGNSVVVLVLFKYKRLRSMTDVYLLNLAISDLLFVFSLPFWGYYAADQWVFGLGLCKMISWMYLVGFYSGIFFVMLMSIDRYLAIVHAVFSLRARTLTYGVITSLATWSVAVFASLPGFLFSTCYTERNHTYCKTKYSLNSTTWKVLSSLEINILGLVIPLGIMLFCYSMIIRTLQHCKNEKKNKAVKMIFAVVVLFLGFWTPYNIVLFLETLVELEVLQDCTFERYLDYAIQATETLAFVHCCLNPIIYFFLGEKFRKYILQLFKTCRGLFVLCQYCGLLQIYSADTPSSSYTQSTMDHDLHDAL
It counts as cell membranes, Membrane. The following applies: chem-1.

In experiment [4] the target is T3, Cysteinyl leukotriene receptor 1 (Homo sapiens, UniProt Q9Y271). Also: in other assays of this panel Not Active means under 50% inhibition at 10 µM.
T3 sequence (Q9Y271 whole entry): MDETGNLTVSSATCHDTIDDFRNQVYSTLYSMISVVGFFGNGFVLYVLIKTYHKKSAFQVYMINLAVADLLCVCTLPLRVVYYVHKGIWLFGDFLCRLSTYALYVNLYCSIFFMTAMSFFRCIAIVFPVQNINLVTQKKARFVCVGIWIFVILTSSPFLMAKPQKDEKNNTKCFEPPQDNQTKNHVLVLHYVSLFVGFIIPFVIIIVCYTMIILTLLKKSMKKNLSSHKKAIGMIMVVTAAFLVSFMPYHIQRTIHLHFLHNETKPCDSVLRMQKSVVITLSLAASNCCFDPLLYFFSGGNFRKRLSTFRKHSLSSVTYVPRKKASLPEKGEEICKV
The experiment is classed as cell membranes, Membrane. The note with it: cho-k1.

In experiment [5] the target is T4, Muscarinic acetylcholine receptor M4 (Homo sapiens, UniProt P08173). Also: in other assays of this panel Not Active means under 50% inhibition at 10 µM.
T4 sequence (P08173 whole entry): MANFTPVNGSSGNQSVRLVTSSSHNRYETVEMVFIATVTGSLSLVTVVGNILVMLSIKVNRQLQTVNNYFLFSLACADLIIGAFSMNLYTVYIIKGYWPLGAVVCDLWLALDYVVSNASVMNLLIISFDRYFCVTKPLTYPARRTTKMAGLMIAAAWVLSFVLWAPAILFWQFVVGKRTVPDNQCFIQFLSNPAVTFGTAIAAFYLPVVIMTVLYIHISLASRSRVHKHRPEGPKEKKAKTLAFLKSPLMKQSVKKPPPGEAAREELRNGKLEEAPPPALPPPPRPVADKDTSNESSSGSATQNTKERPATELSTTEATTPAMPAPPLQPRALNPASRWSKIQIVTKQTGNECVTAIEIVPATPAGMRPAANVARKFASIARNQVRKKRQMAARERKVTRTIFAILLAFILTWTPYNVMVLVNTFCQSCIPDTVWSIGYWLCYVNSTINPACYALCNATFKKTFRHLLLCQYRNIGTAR
The experiment is classed as cell membranes, CHO-K1, Membrane.

Experiment [6] has as its target T5, Progesterone receptor (Bos taurus, UniProt Q690N0).
T5 sequence (Q690N0 whole entry): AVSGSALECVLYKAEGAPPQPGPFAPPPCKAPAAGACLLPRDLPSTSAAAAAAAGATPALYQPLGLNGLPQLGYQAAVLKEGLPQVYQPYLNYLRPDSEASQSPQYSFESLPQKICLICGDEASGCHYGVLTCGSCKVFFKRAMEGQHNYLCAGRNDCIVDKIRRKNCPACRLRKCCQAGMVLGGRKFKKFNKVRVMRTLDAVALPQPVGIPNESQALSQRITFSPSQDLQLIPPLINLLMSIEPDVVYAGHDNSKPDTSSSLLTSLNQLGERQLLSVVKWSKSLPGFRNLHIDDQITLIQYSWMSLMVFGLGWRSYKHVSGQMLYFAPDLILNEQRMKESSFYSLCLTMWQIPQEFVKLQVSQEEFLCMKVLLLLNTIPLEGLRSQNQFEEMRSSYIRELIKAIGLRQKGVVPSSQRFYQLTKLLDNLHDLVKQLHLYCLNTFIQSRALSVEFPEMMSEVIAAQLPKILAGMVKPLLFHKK
In words: DRUGMATRIX: Progesterone radioligand binding (ligand: [3H] R-5020). The experiment is classed as tissue-based, Uterus. The note with it: Not Active = under 50% inhibition at 10 µM.

Experiment [7] has as its target Protein phosphatase 3 catalytic subunit alpha (Homo sapiens, UniProt Q08209). Also noted: species or system Escherichia coli.

Sequence of Sigma non-opioid intracellular receptor 1 (Q99720 whole entry): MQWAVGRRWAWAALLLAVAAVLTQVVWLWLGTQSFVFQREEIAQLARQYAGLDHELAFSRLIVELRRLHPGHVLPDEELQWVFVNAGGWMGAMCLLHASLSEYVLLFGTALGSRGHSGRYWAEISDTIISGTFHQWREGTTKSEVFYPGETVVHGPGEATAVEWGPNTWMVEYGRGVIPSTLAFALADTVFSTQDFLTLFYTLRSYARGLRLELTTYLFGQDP

For `O=C1C[C@@H]2OCC=C3CN4CC[C@]56c7ccccc7N1[C@H]5[C@H]2[C@H]3C[C@H]46` [STRYCHNINE], the IC50 entry in experiment [1], in experiment [2] (jurkat), in experiment [3], in experiment [4], in experiment [5] (cho-k1) and in experiment [6] was “Not Active” in each case. The half-inhibitory concentration (IC50) (as a rule, the concentration needed to halve the response being measured) in experiment [7] was “Not Active”.
Take `C[N+](C)(C)CCOC(=O)CCC(=O)OCC[N+](C)(C)C.[Cl-].[Cl-]` [SUCCINYLCHOLINE CHLORIDE]: the half-inhibitory concentration (IC50) result in experiment [1], in experiment [2] (jurkat), in experiment [3], in experiment [4], in experiment [5] (cho-k1) and in experiment [6] was “Not Active” each time. Moreover, the IC50 entry in experiment [7] is reported as “Not Active”.
For the compound `Nc1ccc(S(=O)(=O)NC(=O)c2ccccc2)cc1` [SULFABENZAMIDE], the concentration for half-maximal inhibition (IC50) entry in experiment [1], in experiment [2] (jurkat), in experiment [3], in experiment [4], in experiment [5] (cho-k1) and in experiment [6] was “Not Active” in each case. The IC50 entry in experiment [7] is recorded as “Not Active”.
For `CCCCCCCCNC(C)C(O)c1ccc(SC(C)C)cc1` (stereo not drawn) [SULOCTIDIL], the IC50 result was “Not Active” in experiment [1]; 117 nM in experiment [2] (read-out: IC50); “Not Active” in experiment [3]; “Not Active” in experiment [4]; 4560 nM in experiment [5] (read-out: IC50); “Not Active” in experiment [6]. In addition, the IC50 result in experiment [7] is given as “Not Active”. Moreover, the values for the Ki in experiment [2] (read-out: Ki) and in experiment [5] (read-out: Ki) were 49.3 nM and 636 nM, respectively.
With `O=c1[nH]c(=O)n(C2CCCO2)cc1F` (stereo not drawn) [TEGAFUR], the IC50 entry in experiment [1], in experiment [2] (jurkat), in experiment [3], in experiment [4], in experiment [5] (cho-k1) and in experiment [6] was “Not Active” throughout. In addition, the IC50 result in experiment [7] is on record as “Not Active”.
As for `CC(=N)S` [THIOACETAMIDE], the IC50 result in experiment [1], in experiment [2] (jurkat), in experiment [3], in experiment [4], in experiment [5] (cho-k1) and in experiment [6] was “Not Active” throughout. Moreover, in experiment [7], the IC50 entry is on record as “Not Active”.
With `Cc1ccc(C(=O)c2ccc(CC(=O)O)n2C)cc1` [TOLMETIN], the IC50 entry in experiment [1], in experiment [2] (jurkat), in experiment [3], in experiment [4], in experiment [5] (cho-k1) and in experiment [6] was “Not Active” in each case. Moreover, the half-maximal inhibitory concentration (IC50) entry in experiment [7] is “Not Active”.
Turning to `CC(=O)OCC(COC(C)=O)OC(C)=O` [TRIACETIN], the IC50 result in experiment [1], in experiment [2] (jurkat), in experiment [4], in experiment [5] (cho-k1), in experiment [6] and in experiment [7] was “Not Active” throughout. Further, the Ki (as a rule, the equilibrium dissociation constant of an inhibitor or competing ligand from its target) in experiment [3] is reported as “Not Active”.
Turning to `CN1CCN(CCCN2c3ccccc3Sc3ccc(C(F)(F)F)cc32)CC1` [TRIFLUOPERAZINE], the half-maximal inhibitory concentration (IC50) result in experiment [1], in experiment [2] (jurkat), in experiment [4], in experiment [5] (cho-k1), in experiment [6] and in experiment [7] was “Not Active” each time. Besides, in experiment [3], the Ki entry is reported as “Not Active”.
Regarding TRANSPLATIN, the IC50 entry in experiment [1], in experiment [2] (jurkat), in experiment [3], in experiment [4], in experiment [5] (cho-k1) and in experiment [6] was “Not Active” each time. The IC50 result in experiment [7] is given as “Not Active”. The inhibition constant (Ki) result in experiment [1], in experiment [2] (jurkat), in experiment [3], in experiment [4], in experiment [5] (cho-k1) and in experiment [6] was “Not Active” throughout. Moreover, the inhibitory constant (Ki) entry in experiment [7] was “Not Active”.
Regarding ZIRCONIUM(IV) CHLORIDE, the IC50 result in experiment [1], in experiment [2] (jurkat), in experiment [3], in experiment [4], in experiment [5] (cho-k1) and in experiment [6] was “Not Active” in each case. Further, the IC50 entry in experiment [7] is given as “Not Active”. For the same compound, the Ki entry in experiment [1], in experiment [2] (jurkat), in experiment [3], in experiment [4], in experiment [5] (cho-k1) and in experiment [6] was “Not Active” throughout. The Ki entry in experiment [7] is listed as “Not Active”.
